In patent US10509041B2, “Glucose derivative, and cell imaging method and imaging agent using said derivative” (HIROSAKI UNIVERSITY, priority 2014, dated 2019):
Values joined by “and” are separate entries in the source; they are usually repeats but may differ in a detail not shown here. Identical values can stand only once.

Test system: mouse insulinoma cells (MIN6)
Experiment: Increase in fluorescence intensity (uptake) after administration of fluorescent glucose derivative to MIN6 cells, influence of cytochalasin B (CB) or phloretin (PHT), fluorescence microplate reader
Type: cell-based
Conditions: CDG 100 μM, 37° C. 5 minutes; CB 10 μM; MIN6 culture day 13; average, two independent experiments
Procedure: Increase in fluorescence intensity caused by the administration of CDG, and the influence of a glucose transporter (GLUT) inhibitor CB thereon were confirmed by targeting MIN6 cells.
A 96-well clear-bottom plate having wells of 8 rows (A to H) and 12 columns (1 to 12) (μClear-PLATE, Greiner Bio-One, BLACK) was used in measurement. A culture solution containing MIN6 cells suspended at a density of 60×10^4 cells/mL was added dropwise at 10 μL/well to the central portion of the well, and then, the plate was left standing for 40 minutes in an incubator for fixation. The cells were cultured by the addition of a culture solution at 200 μL/well (6000 cells/well). For layout, the cells were seeded to wells B to H on the third column and wells A to G on the fifth column. Medium replacement was performed by replacing half the amount with a fresh one once every two days at 0 to 4 DIV (days in vitro) and every day at 5 DIV or later. […]
CDG and 2-NBDG were each independently administered to the wells on the third and fifth columns using an 8-channel pipette such that these derivatives were alternately placed on the same plate. Before the administration, the autofluorescence of each well was measured in advance using a fluorescence microplate reader (Flex Station, Molecular Devices, LLC). […] The measurement was conducted at Bottom Read, Averaging 3, and Photomultiplier sensitivity high. […]

## O=c1ccc2ccc(NC3C(O)OC(CO)[C@@H](O)[C@@H]3O)cc2o1 (stereo partly drawn) [CDG, 2-deoxy-2-(2-oxo-2H-chromen-7-yl)amino-D-glucose]
  fluorescence intensity in the presence of CB relative to the absence of CB: 47.3% and 42.9%
